Test results reported in US20250042920A1 (OCEAN UNIVERSITY OF CHINA, priority 2021, published 2025).

Columns and labels:
[1] = biological target: MNK1 (Homo sapiens, UniProt Q9BUB5); test: MNK1 kinase inhibition assay (LANCE Ultra kinase activity assay, PerkinElmer); assay type: biochemical; settings: 450 μM ATP; for inhibition at 1 µM: inhibition rate at 1000 nM compound, 60 min, 25° C., read-out: Inhibitory activity(1 μM) MNK1; for IC50: five concentrations 10000-1 nM
Protocol: (§1) MNK1 and MNK2 kinase inhibition assays were performed using LANCE Ultra kinase activity assay developed by PerkinElmer. […] The test steps are as follows: At 25° C., 1.00 ng MNK1 or 0.05 ng MNK2 was prepared with different concentrations (10000, 1000, 100, 10, 1 nM) of the tested compound to form a total volume of 10 μL reaction mixture (MNK1: 12.5 nM CREB, 450 μM ATP, 2 mM DTT, 1× buffer; MNK2: 12.5 nM CREB, 100 μM ATP, 2 mM DTT, 1×buffer), and incubation for 60 min. The reaction was terminated by adding 5 μL EDTA/Detection buffer and 5 μL Eu-CREB/Detection buffer. The ratio of HTRF signals at 615 nm and 665 nm was detected after 60 min of incubation. The inhibition rate was calculated by measuring the compounds at 1000 nM.
(§2) Then five different concentrations (10000, 1000, 100, 10, 1 nM) of the tested compounds were measured, and the IC50 value was calculated according to the inhibition rate fitting curve.

[2] = biological target: MNK2 (Homo sapiens, UniProt Q9HBH9); test: MNK2 kinase inhibition assay (LANCE Ultra kinase activity assay, PerkinElmer); assay type: biochemical; settings: 100 μM ATP; for inhibition at 1 µM: inhibition rate at 1000 nM compound, 60 min, 25° C., read-out: Inhibitory activity(1 μM) MNK2; for IC50: five concentrations 10000-1 nM
Protocol: as §1, §2

Chain of MNK1 (Q9BUB5 whole entry): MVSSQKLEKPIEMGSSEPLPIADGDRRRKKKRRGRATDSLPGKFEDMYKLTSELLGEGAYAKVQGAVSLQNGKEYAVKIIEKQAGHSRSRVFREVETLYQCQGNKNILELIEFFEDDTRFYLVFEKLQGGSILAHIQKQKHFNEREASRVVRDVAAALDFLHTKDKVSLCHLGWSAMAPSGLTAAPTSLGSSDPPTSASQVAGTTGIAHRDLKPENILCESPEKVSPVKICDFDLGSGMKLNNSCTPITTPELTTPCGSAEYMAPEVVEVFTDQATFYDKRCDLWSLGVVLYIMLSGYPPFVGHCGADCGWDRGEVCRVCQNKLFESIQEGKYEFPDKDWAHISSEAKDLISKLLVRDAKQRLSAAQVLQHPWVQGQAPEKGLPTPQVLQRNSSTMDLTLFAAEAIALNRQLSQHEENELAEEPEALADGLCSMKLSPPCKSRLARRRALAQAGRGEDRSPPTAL
Chain of MNK2 (Q9HBH9 whole entry): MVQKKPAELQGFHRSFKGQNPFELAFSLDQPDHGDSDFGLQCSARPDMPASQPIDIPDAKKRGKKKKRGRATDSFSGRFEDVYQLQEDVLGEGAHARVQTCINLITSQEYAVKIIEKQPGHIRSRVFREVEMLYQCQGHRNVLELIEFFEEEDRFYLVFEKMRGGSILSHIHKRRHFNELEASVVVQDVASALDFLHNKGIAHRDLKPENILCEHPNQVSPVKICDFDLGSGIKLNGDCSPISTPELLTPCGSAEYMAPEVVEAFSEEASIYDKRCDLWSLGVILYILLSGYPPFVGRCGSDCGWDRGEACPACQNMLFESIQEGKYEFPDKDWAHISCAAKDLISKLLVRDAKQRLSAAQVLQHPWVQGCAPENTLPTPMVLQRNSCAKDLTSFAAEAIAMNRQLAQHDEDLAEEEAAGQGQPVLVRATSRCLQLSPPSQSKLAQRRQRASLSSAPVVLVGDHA

Row | inhibition at 1 µM [1] [%] | inhibition at 1 µM [2] [%] | IC50 [1] [nM] | IC50 [2] [nM] | SMILES
1 | > 75 | > 75 | – | – | O=C(c1ccc(-c2nn3c(-c4ccc(C(F)(F)F)c(F)c4)cnc3s2)cc1)N1CCOCC1 [Compound 9, (4-(5-(3-fluoro-4-(trifluoromethyl)phenyl)imidazo[2,1-b][1,3,4]thiadiazol-2-yl)phenyl)(morpholino)methanone]
2 | > 75 | > 75 | < 50 | < 50 | O=C(c1ccc(-c2nn3c(-c4ccc(O)cc4)cnc3s2)cc1)N1CCOCC1 [Compound 3, (4-(5-(4-hydroxyphenyl)imidazo[2,1-b][1,3,4]thiadiazol-2-yl)phenyl)(morpholino)methanone]
3 | > 75 | > 75 | 200 to 800 | < 50 | O=C(c1ccc(-c2nn3c(-c4ccc(F)cc4)cnc3s2)cc1)N1CCOCC1 [Compound 2, (4-(5-(4-fluorophenyl)imidazo[2,1-b][1,3,4]thiadiazol-2-yl)phenyl)(morpholino)methanone]
4 | > 75 | > 75 | – | – | COC(=O)c1ccc(-c2cnc3sc(-c4ccc(C(=O)N5CCOCC5)cc4)nn23)cc1 [Compound 4]
5 | > 75 | > 75 | 50 to 200 | < 50 | O=C(c1ccc(-c2nn3c(-c4ccc(O)c(F)c4)cnc3s2)cc1)N1CCOCC1 [Compound 10, (4-(5-(3-fluoro-4-hydroxyphenyl)imidazo[2,1-b][1,3,4]thiadiazol-2-yl)phenyl)(morpholino)methanone]
6 | > 75 | > 75 | 50 to 200 | 50 to 200 | O=C(c1ccc(-c2nn3c(-c4ccc(Cl)cc4)cnc3s2)cc1)N1CCOCC1 [Compound 6, (4-(5-(4-chlorophenyl)imidazo[2,1-b][1,3,4]thiadiazol-2-yl)phenyl)(morpholino)methanone]
7 | 25 to 50 | 25 to 50 | – | – | CN1CCN(C(=O)c2ccc(-c3cn4c(-c5ccc(C(F)(F)F)cc5)csc4n3)cc2)CC1 [Compound 50, (4-methylpiperazin-1-yl)(4-(3-(4-(trifluoromethyl)phenyl)imidazo[2,1-b]thiazol-6-yl)phenyl)methanone]
8 | 25 to 50 | 25 to 50 | – | – | CN(C)C1CCN(C(=O)c2ccc(-c3cn4c(-c5ccc(C(F)(F)F)cc5)csc4n3)cc2)CC1 [Compound 54, (4-(dimethylamino)piperidin-1-yl)(4-(3-(4-(trifluoromethyl)ph-enyl)imidazo [2,1-b]thiazol-6-yl)phenyl)methanone]
9 | 25 to 50 | 25 to 50 | – | – | COc1ccc(-c2csc3nc(-c4ccc(C(=O)N5CCOCC5)cc4)cn23)cc1 [Compound 45, (4-(3-(4-methoxyphenyl)imidazo[2,1-b]thiazol-6-yl)phenyl)(morpholino)methanone]
10 | > 75 | > 75 | 200 to 800 | 50 to 200 | COC(=O)c1ccc(-c2cnc3sc(-c4ccc(C(=O)N5CCN(C)CC5)cc4)nn23)cc1 [Compound 19, methyl 4-(2-(4-(4-methylpiperazine-1-carbonyl)phenyl)imidazo[2,1-b][1,3,4]thiadiazol-5-yl)benzoate]
11 | > 75 | > 75 | < 50 | < 50 | CN1CCN(C(=O)c2ccc(-c3nn4c(-c5ccc(C(F)(F)F)cc5)cnc4s3)cc2)CC1 [Compound 21, (4-methylpiperazin-1-yl)(4-(5-(4-(trifluoromethyl)phenyl)imidazo[2,1-b][1,3,4]thiadiazol-2-yl)phenyl)methanone]
12 | 25 to 50 | 25 to 50 | – | – | CN(C)C1CCN(C(=O)c2ccc(-c3cn4c(-c5ccc(Cl)cc5)csc4n3)cc2)CC1 [Compound 55, (4-(3-(4-chlorophenyl)imidazo[2,1-b]thiazol-6-yl)phenyl)(4-(dimethylamino)piperidin-1-yl)methanone]
13 | > 75 | > 75 | < 50 | < 50 | N#Cc1ccc(-c2cnc3sc(-c4ccc(C(=O)NCCN5CCCC5)cc4)nn23)cc1 [Compound 38, 4-(5-(4-cyanophenyl)imidazo[2,1-b][1,3,4]thiadiazol-2-yl)-N-(2-(pyrrolidin-1-yl)ethyl)benzamide]
14 | > 75 | > 75 | 50 to 200 | 50 to 200 | O=C(c1ccc(-c2nn3c(-c4ccc(C(F)(F)F)cc4)cnc3s2)cc1)N1CCOCC1 [Compound 5, morpholino(4-(5-(4-(trifluoromethyl)phenyl)imidazo[2,1-b][1,3,4]thiadiazol-2-yl)phenyl)methanone]
15 | > 75 | > 75 | < 50 | < 50 | N#Cc1ccc(-c2cnc3sc(-c4ccc(C(=O)N5CCCC5)cc4)nn23)cc1 [Compound 30, 4-(2-(4-(pyrrolidine-1-carbonyl)phenyl)imidazo[2,1-b][1,3,4]thiadiazol-5-yl)benzonitrile]
16 | 25 to 50 | 25 to 50 | – | – | CN1CCN(C(=O)c2ccc(-c3cn4c(-c5ccc(Cl)cc5)csc4n3)cc2)CC1 [Compound 51, (4-(3-(4-chlorophenyl)imidazo[2,1-b]thiazol-6-yl)phenyl)(4-methylpiperazin-1-yl)methanone]
17 | 25 to 50 | 25 to 50 | – | – | N#Cc1ccc(-c2cnc3sc(-c4ccc(C(=O)SCCO)cc4)nn23)cc1 [Compound 35, S-(2-hydroxyethyl)4-(5-(4-cyanophenyl)imidazo[2,1-b][1,3,4]thiadiazol-2-yl)benzothioate]
18 | 50 to 75 | > 75 | 800 to 1500 | 200 to 800 | CN1CCN(C(=O)c2ccc(-c3nn4c(-c5ccc(F)nc5)cnc4s3)cc2)CC1 [Compound 28, (4-(5-(6-fluoropyridin-3-yl)imidazo[2,1-b][1,3,4]thiadiazol-2-yl)phenyl)(4-methylpiperazin-1-yl)methanone]
19 | > 75 | > 75 | < 50 | < 50 | CN(C)C1CCN(C(=O)c2ccc(-c3nn4c(-c5ccc(C(F)(F)F)cc5)cnc4s3)cc2)CC1 [Compound 16]
20 | 25 to 50 | 25 to 50 | – | – | O=C(c1ccc(-c2cn3c(-c4ccc(F)cc4)csc3n2)cc1)N1CCC(N2CCOCC2)CC1 [Compound 52, 6-(4-(4-morpholinepiperidinebasecarbonyl)phenyl)-3-(4-fluorinatedphenyl) imidazole [2,1-b]thiazole compounds]
21 | > 75 | > 75 | < 50 | < 50 | N#Cc1ccc(-c2cnc3sc(-c4ccc(C(=O)N5CCOCC5)cc4)nn23)cc1 [Compound 1, 4-(2-(4-(morpholine-4-carbonyl)phenyl)imidazo[2,1-b][1,3,4]thiadiazol-5-yl)benzonitrile]
22 | 25 to 50 | 25 to 50 | – | – | O=C(c1ccc(-c2cn3c(-c4ccc(F)cc4)csc3n2)cc1)N1CCOCC1 [Compound 44, (4-(3-(4-fluorophenyl)imidazo[2,1-b]thiazol-6-yl)phenyl)(morpholino)methanone]
23 | 25 to 50 | 25 to 50 | – | – | CN(C)C1CCN(C(=O)c2ccc(-c3cn4c(-c5ccc(F)cc5)csc4n3)cc2)CC1 [Compound 53, (4-(dimethylamino)piperidin-1-yl)(4-(3-(4-fluorophenyl)imidazo[2,1-b]thiazol-6-yl)phenyl)methanone]
24 | > 75 | > 75 | – | – | Cc1ccc(-c2cnc3sc(-c4ccc(C(=O)N5CCOCC5)cc4)nn23)cc1 [Compound 7, morpholino(4-(5-(p-tolyl)imidazo[2,1-b][1,3,4]thiadiazol-2-yl)phenyl)methanone]
25 | > 75 | > 75 | < 50 | < 50 | N#Cc1ccc(-c2cnc3sc(-c4ccc(C(=O)NCCO)cc4)nn23)cc1 [Compound 40, 4-(5-(4-cyanophenyl)imidazo[2,1-b][1,3,4]thiadiazol-2-yl)-N-(2-hydroxyethyl)benzamide]
26 | 25 to 50 | 25 to 50 | – | – | N#Cc1ccc(-c2cnc3sc(-c4ccc(C(=O)OCCCCCO)cc4)nn23)cc1 [Compound 34, 5-hydroxypentyl 4-(5-(4-cyanophenyl)imidazo[2,1-b][1,3, 4]thiadiazol-2-yl)benzoate]
27 | > 75 | > 75 | < 50 | < 50 | CN(C)C1CCN(C(=O)c2ccc(-c3nn4c(-c5ccc(O)cc5)cnc4s3)cc2)CC1 [Compound 14, (4-(dimethylamino)piperidin-1-yl)(4-(5-(4-hydroxyphenyl)imidazo[2,1-b][1,3,4]thiadiazol-2-yl)phenyl)methanone]
28 | > 75 | > 75 | 50 to 200 | 50 to 200 | CN1CCN(C(=O)c2ccc(-c3nn4c(-c5ccc(C#N)c(F)c5)cnc4s3)cc2)CC1 [Compound 24, 2-fluoro-4-(2-(4-(4-methylpiperazine-1-carbonyl)phenyl)imidazo[2,1-b][1,3,4]thiadiazol-5-yl)benzonitrile]
